Values quoted from earlier work in US6369078B1, “Solenopsin derivatives and analogues as fire ant suppressants” (priority 1999, dated 2002).

Legend:
[1] = tested on: fire ants; conditions: stomach insecticide combined with bait
[2] = tested on: blood and tissue- and fluid-feeding parasites
[3] = as much as 6000 units over a shorter time period

| Compound | effectiveness against fire ants [1] | units equivalent to 250 units of the whole body extracts ([2]; synthetic version against whole body extract) [units] | elimination of blood and tissue- and fluid-feeding parasites ([2]; synthetically produced, oral) | ill effects [3] |
| --- | --- | --- | --- | --- |
| ClC1(Cl)C2(Cl)C3(Cl)C4(Cl)C(Cl)(Cl)C5(Cl)C3(Cl)C1(Cl)C5(Cl)C24Cl (stereo not shown) [Mirex] | more than 95% | – | – | – |
| CCCCCCCCCCC[C@H]1CCC[C@H](C)N1 (relative stereo) [Solenopsin A, trans-2-methyl 6-n-undecylpiperidine] | – | 1500 | complete elimination | did not cause any ill effects |
